Assay results published in patent publication US20100267561A1, “HERBICIDAL PYRIDAZINONE DERIVATIVES” (priority 2007, published 2010).

What was measured:
Type in all cases: in vivo
[1] = system: barnyardgrass (Echinochloa crus-galli); assay: Test A pre-/postemergence plant response
Summary of the method: (§1)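 Greenhouse pot test: loam–sand soil; pre- and postemergence sprays applied same day; post plants 2–10 cm, 1–2 leaves. Readout ~10 d, visual % injury vs untreated (0 = none, 100 = complete control).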

corn (Zea mays) = assay: Test A pre-/postemergence plant response
Summary of the method: as §1

[2] = system: giant foxtail (Setaria faberi); assay: Test A pre-/postemergence plant response
Summary of the method: as §1

[3] = system: large crabgrass (Digitaria sanguinalis); assay: Test A pre-/postemergence plant response
Summary of the method: as §1

[4] = system: morningglory (Ipomoea coccinea); assay: Test A pre-/postemergence plant response
Summary of the method: as §1

[5] = system: pigweed (Amaranthus retroflexus); assay: Test A pre-/postemergence plant response
Summary of the method: as §1

[6] = system: velvetleaf (Abutilon theophrasti); assay: Test A pre-/postemergence plant response
Summary of the method: as §1

[7] = system: wheat (Triticum aestivum); assay: Test A pre-/postemergence plant response
Summary of the method: as §1

[8] = system: blackgrass (Alopecurus myosuroides); assay: Test B pre-/postemergence plant response; conditions: for Blackgrass plant response rating: 8 g ai/ha
Description: (§2) Seeds of plant species selected from blackgrass (Alopecurus myosuroides), downy bromegrass (Bromus tectorum), green foxtail (Setaria viridis), Italian ryegrass (Lolium multiflorum), wheat (Triticum aestivum), wild oat (Avena fatua), catchweed bedstraw (Galium aparine), bermudagrass (Cynodon dactylon), surinam grass (Brachiaria decumbens), cocklebur (Xanthium strumarium), corn (Zea mays), large crabgrass (Digitaria sanguinalis), woolly cupgrass (Eriochloa villosa), giant foxtail (Setaria faberii), goosegrass (Eleusine indica), johnsongrass (Sorghum halepense), kochia (Kochia scoparia), lambsquarters (Chenopodium album), morningglory (Ipomoea coccinea), eastern black (E.B.) nightshade (Solanum ptycanthum), yellow nutsedge (Cyperus esculentus), pigweed (Amaranthus retroflexus), common ragweed (Ambrosia elation), Russian thistle (Salsola iberica), soybean (Glycine max), common (oilseed) sunflower (Helianthus annuus), and velvetleaf (Abutilon theophrasti) were planted and treated preemergence with test chemicals formulated in a non-phytotoxic solvent mixture which included a surfactant.
(§3) At the same time, plants selected from these crop and weed species and also winter barley (Hordeum vulgare), canarygrass (Phalaris minor), chickweed (Stellaria media) and windgrass (Apera spica-venti) were treated with postemergence applications of some of the test chemicals formulated in the same manner. Plants ranged in height from 2 to 18 cm (1- to 4-leaf stage) for postemergence treatments.
(§4) Plant species in the flooded paddy test consisted of rice (Oryza sativa), umbrella sedge (Cyperus difformis), ducksalad (Heteranthera limosa) and barnyardgrass (Echinochloa crus-galli) grown to the 2-leaf stage for testing. At time of treatment, test pots were flooded to 3 cm above the soil surface, treated by application of test compounds directly to the paddy water, and then maintained at that water depth for the duration of the test. Treated plants and controls were maintained in a greenhouse for 13 to 15 days, after which time all species were compared to controls and visually evaluated. Plant response ratings, summarized in Table B, are based on a scale of 0 to 100 where 0 is no effect and 100 is complete control. A dash (-) response means no test result.

[9] = system: lambsquarters (Chenopodium album); assay: Test B pre-/postemergence plant response
Description: as §2, §3, §4

[10] = system: morningglory (Ipomoea coccinea); assay: Test B pre-/postemergence plant response
Description: as §2, §3, §4

[11] = Postemergence, 125 g ai/ha, 0 to 100 scale, 0 no effect, 100 complete control
[12] = Postemergence, 500 g ai/ha, 0 to 100 scale, 0 no effect, 100 complete control
[13] = Preemergence, 125 g ai/ha, 0 to 100 scale (0 no effect, 100 complete control)
[14] = Preemergence, 500 g ai/ha, 0 to 100 scale (0 no effect, 100 complete control)
[15] = Postemergence, 16 g ai/ha, scale 0 to 100
[16] = Postemergence, 31 g ai/ha, scale 0 to 100, 0 no effect, 100 complete control
[17] = Postemergence, 62 g ai/ha, scale 0 to 100
[18] = Preemergence, 16 g ai/ha, scale 0 to 100 (0 no effect, 100 complete control)
[19] = Preemergence, 31 g ai/ha, 0 to 100 scale, 0 no effect, 100 complete control
[20] = Preemergence, 62 g ai/ha, scale 0 to 100
[21] = 8 g ai/ha, postemergence, 0-100 scale
[22] = Preemergence, 8 g ai/ha, scale 0 to 100
[23] = Postemergence, 31 g ai/ha, 0 to 100 scale, 0 no effect, 100 complete control
[24] = Preemergence, 31 g ai/ha, 0 to 100 scale, 0 is no effect, 100 is complete control
[25] = Postemergence, 31 g ai/ha, scale 0 to 100
[26] = Postemergence, 62 g ai/ha, scale 0 to 100, 0 no effect, 100 complete control
[27] = Preemergence, 31 g ai/ha, scale 0 to 100 (0 no effect, 100 complete control)
[28] = Preemergence, 62 g ai/ha, 0 to 100 scale, 0 no effect, 100 complete control
[29] = 16 g ai/ha, postemergence, 0-100 scale
[30] = Preemergence, 16 g ai/ha, scale 0 to 100

CCc1cc(-c2ccc(Cl)cc2)nn1-c1c(O)cnn(C)c1=O [Compound 21]
Plant response rating, Barnyardgrass [1, 11]: 100
Plant response rating, Barnyardgrass [1, 12]: 100
Plant response rating, Barnyardgrass [1, 13]: 100
Plant response rating, Barnyardgrass [1, 14]: 100
Plant response rating, Corn (corn (Zea mays); [11]): 80
Plant response rating, Corn (corn (Zea mays); [12]): 90
Plant response rating, Corn (corn (Zea mays); [13]): 90
Plant response rating, Corn (corn (Zea mays); [14]): 100
Plant response rating, Foxtail, Giant [2, 11]: 100
Plant response rating, Foxtail, Giant [2, 12]: 100
Plant response rating, Foxtail, Giant [2, 13]: 100
Plant response rating, Foxtail, Giant [2, 14]: 100
Plant response rating, Crabgrass, Large [3, 11]: 90
Plant response rating, Crabgrass, Large [3, 12]: 100
Plant response rating, Crabgrass, Large [3, 13]: 100
Plant response rating, Crabgrass, Large [3, 14]: 100
Plant response rating, Morningglory [4, 11]: 0
Plant response rating, Morningglory [4, 12]: 0
Plant response rating, Morningglory [4, 13]: 0
Plant response rating, Morningglory [4, 14]: 0
Plant response rating, Pigweed [5, 11]: 0
Plant response rating, Pigweed [5, 12]: 0
Plant response rating, Pigweed [5, 13]: 0
Plant response rating, Pigweed [5, 14]: 0
Plant response rating, Velvetleaf [6, 11]: 0
Plant response rating, Velvetleaf [6, 12]: 0
Plant response rating, Velvetleaf [6, 13]: 0
Plant response rating, Velvetleaf [6, 14]: 0
Plant response rating, Wheat [7, 11]: 60
Plant response rating, Wheat [7, 12]: 80
Plant response rating, Wheat [7, 13]: 90
Plant response rating, Wheat [7, 14]: 100
Blackgrass plant response rating ([8]; postemergence, 0-100 scale): 95
Plant response rating, Blackgrass [8, 15]: 95
Plant response rating, Blackgrass [8, 16]: 100
Plant response rating, Blackgrass [8, 17]: 100
Plant response rating, Blackgrass [8, 18]: 100
Plant response rating, Blackgrass [8, 19]: 100
Plant response rating, Blackgrass [8, 20]: 100
Blackgrass plant response rating ([8]; Preemergence, scale 0 to 100): 95
Lambsquarters plant response rating [9, 21]: 0
Plant response rating, Lambsquarters [9, 15]: 0
Plant response rating, Lambsquarters [9, 16]: 0
Plant response rating, Lambsquarters [9, 17]: 0
Plant response rating, Lambsquarters [9, 18]: 0
Plant response rating, Lambsquarters [9, 19]: 100
Plant response rating, Lambsquarters [9, 20]: 100
Lambsquarters plant response rating [9, 22]: 0
Morningglory plant response rating [10, 21]: 0
Plant response rating, Morningglory [10, 15]: 0
Plant response rating, Morningglory [10, 16]: 0
Plant response rating, Morningglory [10, 17]: 0
Plant response rating, Morningglory [10, 18]: 0
Plant response rating, Morningglory [10, 19]: 0
Plant response rating, Morningglory [10, 20]: 0
Morningglory plant response rating [10, 22]: 0

CCc1cc(-c2ccc(C(F)(F)F)cc2)nn1-c1c(O)c(OC)nn(C)c1=O [Compound 66]
Plant response rating, Barnyardgrass [1, 23]: 100
Plant response rating, Barnyardgrass [1, 11]: 100
Plant response rating, Barnyardgrass [1, 24]: 10
Plant response rating, Barnyardgrass [1, 13]: 100
Plant response rating, Corn (corn (Zea mays); [23]): 100
Plant response rating, Corn (corn (Zea mays); [11]): 100
Plant response rating, Corn (corn (Zea mays); [24]): 40
Plant response rating, Corn (corn (Zea mays); [13]): 80
Plant response rating, Foxtail, Giant [2, 23]: 100
Plant response rating, Foxtail, Giant [2, 11]: 100
Plant response rating, Foxtail, Giant [2, 24]: 90
Plant response rating, Foxtail, Giant [2, 13]: 100
Plant response rating, Crabgrass, Large [3, 23]: 100
Plant response rating, Crabgrass, Large [3, 11]: 100
Plant response rating, Crabgrass, Large [3, 24]: 0
Plant response rating, Crabgrass, Large [3, 13]: 70
Plant response rating, Morningglory [4, 23]: 0
Plant response rating, Morningglory [4, 11]: 0
Plant response rating, Morningglory [4, 24]: 0
Plant response rating, Morningglory [4, 13]: 0
Plant response rating, Pigweed [5, 23]: 0
Plant response rating, Pigweed [5, 11]: 0
Plant response rating, Pigweed [5, 24]: 0
Plant response rating, Pigweed [5, 13]: 0
Plant response rating, Velvetleaf [6, 23]: 0
Plant response rating, Velvetleaf [6, 11]: 0
Plant response rating, Velvetleaf [6, 24]: 0
Plant response rating, Velvetleaf [6, 13]: 0
Plant response rating, Wheat [7, 23]: 90
Plant response rating, Wheat [7, 11]: 100
Plant response rating, Wheat [7, 24]: 60
Plant response rating, Wheat [7, 13]: 90
Blackgrass plant response rating ([8]; postemergence, 0-100 scale): 90
Plant response rating, Blackgrass [8, 15]: 100
Plant response rating, Blackgrass [8, 25]: 100
Plant response rating, Blackgrass [8, 26]: 100
Plant response rating, Blackgrass [8, 18]: 100
Plant response rating, Blackgrass [8, 27]: 100
Plant response rating, Blackgrass [8, 28]: 100
Blackgrass plant response rating ([8]; Preemergence, scale 0 to 100): 90
Lambsquarters plant response rating [9, 21]: 0
Lambsquarters plant response rating [9, 29]: 0
Plant response rating, Lambsquarters [9, 25]: 0
Plant response rating, Lambsquarters [9, 26]: 0
Morningglory plant response rating [10, 21]: 0
Morningglory plant response rating [10, 29]: 0
Plant response rating, Morningglory [10, 25]: 0
Plant response rating, Morningglory [10, 26]: 0
Plant response rating, Morningglory [10, 27]: 0
Plant response rating, Morningglory [10, 28]: 0
Morningglory plant response rating [10, 22]: 0
Morningglory plant response rating [10, 30]: 0

Cc1cc(-c2ccc(Cl)cc2)nn1-c1c(OS(=O)(=O)c2ccc(Cl)s2)cnn(C)c1=O [Compound 55]
Plant response rating, Barnyardgrass [1, 23]: 0
Plant response rating, Barnyardgrass [1, 11]: 30
Plant response rating, Barnyardgrass [1, 24]: 0
Plant response rating, Barnyardgrass [1, 13]: 80
Plant response rating, Corn (corn (Zea mays); [23]): 0
Plant response rating, Corn (corn (Zea mays); [11]): 40
Plant response rating, Corn (corn (Zea mays); [24]): 0
Plant response rating, Corn (corn (Zea mays); [13]): 40
Plant response rating, Foxtail, Giant [2, 23]: 20
Plant response rating, Foxtail, Giant [2, 11]: 70
Plant response rating, Foxtail, Giant [2, 24]: 80
Plant response rating, Foxtail, Giant [2, 13]: 90
Plant response rating, Crabgrass, Large [3, 23]: 10
Plant response rating, Crabgrass, Large [3, 11]: 60
Plant response rating, Crabgrass, Large [3, 24]: 20
Plant response rating, Crabgrass, Large [3, 13]: 80
Plant response rating, Morningglory [4, 23]: 0
Plant response rating, Morningglory [4, 11]: 0
Plant response rating, Morningglory [4, 24]: 0
Plant response rating, Morningglory [4, 13]: 0
Plant response rating, Pigweed [5, 23]: 0
Plant response rating, Pigweed [5, 11]: 0
Plant response rating, Pigweed [5, 24]: 0
Plant response rating, Pigweed [5, 13]: 0
Plant response rating, Velvetleaf [6, 23]: 0
Plant response rating, Velvetleaf [6, 11]: 0
Plant response rating, Velvetleaf [6, 24]: 0
Plant response rating, Velvetleaf [6, 13]: 0
Plant response rating, Wheat [7, 23]: 0
Plant response rating, Wheat [7, 11]: 30
Plant response rating, Wheat [7, 24]: 0
Plant response rating, Wheat [7, 13]: 50
Plant response rating, Blackgrass [8, 18]: 80
Plant response rating, Blackgrass [8, 19]: 100
Plant response rating, Blackgrass [8, 20]: 100
Blackgrass plant response rating ([8]; Preemergence, scale 0 to 100): 0
Plant response rating, Lambsquarters [9, 19]: 0
Plant response rating, Lambsquarters [9, 20]: 0
Lambsquarters plant response rating [9, 22]: 0
Lambsquarters plant response rating [9, 30]: 0
Plant response rating, Morningglory [10, 27]: 0
Plant response rating, Morningglory [10, 20]: 0
Morningglory plant response rating [10, 22]: 0
Morningglory plant response rating [10, 30]: 0
